Experimental data from patent US20120100184A1, “SYNTHESIS OF 1-AMINO-1,3,3,5,5,-CYCLOHEXANE MESYLATE” (MERZ PHARMA GmbH & CO.KGaA, priority 2009, published 2012).

Key:
[1] = Particle size distribution of neramexane mesylate crystals by laser diffraction; type: physicochemical; conditions: for d(10) / d(50) / d(90): Example 17, re-crystallized from anisole; for PSD d(10) / PSD d(50) / PSD d(90): re-crystallization step (iii) and seeding step (iv)
Experimental: The particle size is determined according to the known methods employing laser diffraction as already mentioned above, and determining the distribution modal sizes.
Particle size distribution ranges as determined by laser diffraction with mesylates obtained in anisole, cumene, methyl ethyl ketone, methyl isobutyl ketone and n-butyl acetate by performing at least re-crystallization step (iii) and seeding step (iv) are disclosed in the following table:
The crystals obtained in the process of Example 1 are analysed regarding the crystal size and size distribution. A commercial Malvern Mastersizer 2000 is employed. The samples are dispersed in rapeseed oil.

[2] = Amount of solvent necessary to dissolve 1 g neramexane mesylate (re-crystallization step (iii)); type: physicochemical
Experimental: 20 ml cumene are necessary to dissolve 1 g neramexane mesylate at 104° C. The mixture is cooled down to ambient temperature. The re-crystallized product is isolated via centrifugation. The obtained crystals are columnar.
22 ml methyl ethyl ketone are necessary to dissolve 1 g neramexane mesylate at 80° C. The mixture is cooled down to ambient temperature. The re-crystallized product is isolated via centrifugation. The obtained crystals have the form of plates in admixture with columnar crystals.
20 ml methyl isobutyl ketone are necessary to dissolve 1 g neramexane mesylate at 100° C. The mixture is cooled down to ambient temperature. The re-crystallized product is isolated via centrifugation. The obtained crystals are columnar.
23 ml n-butyl acetate are necessary to dissolve 1 g neramexane mesylate at 100° C. The mixture is cooled down to ambient temperature. The re-crystallized product is isolated via centrifugation. The obtained crystals are columnar.
10 ml anisole are necessary to dissolve 1 g neramexane mesylate at 87° C. The mixture is cooled down to ambient temperature. The re-crystallized product is isolated via centrifugation. The obtained crystals are columnar.
20 ml tetrahydrofurane are necessary to dissolve 1 g neramexane mesylate at 60° C. The mixture is cooled down to 57° C., where 5% by weight neramexane mesylate is added. Subsequently, the mixture is cooled down to ambient temperature. The re-crystallized product is isolated via centrifugation in a yield of 89%. The obtained crystals have the form of plates.
20 ml toluene are necessary to dissolve 1 g neramexane mesylate at 80° C. The mixture is cooled down to ambient temperature. The re-crystallized product is isolated via centrifugation.
100 ml of the mixture of acetone and water are necessary to dissolve 1 g neramexane mesylate at 40° C. The mixture is cooled down to ambient temperature. The re-crystallized product is isolated via centrifugation in a yield of 66%.
55 ml of dichloromethane are necessary to dissolve 1 g neramexane mesylate at 40° C. The mixture is cooled down to ambient temperature. The re-crystallized product is isolated via centrifugation in a yield of 87%.

[3] = mesylate of the prior art (Schweizer, Dissertation, page 200); cited from earlier work
[4] = Example 3, anisole, 5% by weight seeds added
[5] = crystals of Example 1 (anisole, no seeds), Malvern Mastersizer 2000, dispersed in rapeseed oil
[6] = obtained in methyl ethyl ketone
[7] = obtained in methyl isobutyl ketone

Particle size Distribution d(10) [1, 4]: 15 μm | Particle size Distribution d(50) [1, 4]: 74 μm | Particle size Distribution d(90) [1, 4]: 184 μm | amount of particulate matter (particles having a diameter of 10 μm and less) ([1]; Example 17, anisole, 1%, 2.5%, 5% and 7.5% seeds, respectively): below 5 % by weight | d(10) ([1]; 1% seeds): 69 μm | d(50) ([1]; 1% seeds): 181 μm | d(90) ([1]; 1% seeds): 377 μm | d(10) ([1]; 2.5% seeds): 36 μm | d(50) ([1]; 2.5% seeds): 119 μm | d(90) ([1]; 2.5% seeds): 330 μm | d(10) ([1]; 5% seeds): 24 μm | d(50) ([1]; 5% seeds): 86 μm | d(90) ([1]; 5% seeds): 215 μm | d(10) ([1]; 7.5% seeds): 21 μm | d(50) ([1]; 7.5% seeds): 76 μm | d(90) ([1]; 7.5% seeds): 243 μm | total amount of particles having a particle size of 10 μm and less ([1]; crystals of Example 1 (anisole, no seeds)): less than 1 % by weight | Particle size Distribution d(10) [1, 5]: 52.3 μm | Particle size Distribution d(50) [1, 5]: 129.4 μm | Particle size Distribution d(90) [1, 5]: 264.5 μm | PSD d(10) ([1]; obtained in anisole): 15 μm | PSD d(50) ([1]; obtained in anisole): 74 μm | PSD d(90) ([1]; obtained in anisole): 184 μm | PSD d(10) ([1]; obtained in cumene): 12 μm | PSD d(50) ([1]; obtained in cumene): 62 μm | PSD d(90) ([1]; obtained in cumene): 152 μm | PSD d(10) [1, 6]: 5 μm | PSD d(50) [1, 6]: 79 μm | PSD d(90) [1, 6]: 210 μm | PSD d(10) [1, 7]: 11 μm | PSD d(50) [1, 7]: 57 μm | PSD d(90) [1, 7]: 137 μm | PSD d(10) ([1]; obtained in n-butyl acetate): 12 μm | PSD d(50) ([1]; obtained in n-butyl acetate): 58 μm | PSD d(90) ([1]; obtained in n-butyl acetate): 136 μm | solvent necessary to dissolve 1 g neramexane mesylate ([2]; anisole, 87° C.): 10 mL | solvent necessary to dissolve 1 g neramexane mesylate ([2]; cumene, 104° C.): 20 mL | solvent necessary to dissolve 1 g neramexane mesylate ([2]; dichloromethane, 40° C. (comparison)): 55 mL | solvent necessary to dissolve 1 g neramexane mesylate ([2]; methyl ethyl ketone, 80° C.): 22 mL | solvent necessary to dissolve 1 g neramexane mesylate ([2]; methyl isobutyl ketone, 100° C.): 20 mL | solvent necessary to dissolve 1 g neramexane mesylate ([2]; mixture of acetone/water 99/1 (volume/volume), 40° C. (comparison)): 100 mL | solvent necessary to dissolve 1 g neramexane mesylate ([2]; n-butyl acetate, 100° C.): 23 mL | solvent necessary to dissolve 1 g neramexane mesylate ([2]; tetrahydrofurane, 60° C.): 20 mL | solvent necessary to dissolve 1 g neramexane mesylate ([2]; toluene, 80° C. (comparison)): 20 mL
SMILES: CC1(C)CC(C)(C)CC(C)(N)C1.CS(=O)(=O)O [neramexane mesylate, 1-amino-1,3,3,5,5-pentamethylcyclohexane mesylate]
particle population having a diameter of less than 10 μm [3]: approximately 20 % by weight
